Columns and labels:
Format in all cases: cell-based
CA46 = assay: Inhibition of cell proliferation, CA46; conditions: Homo sapiens, peripheral blood, 72 h, methylene blue or CellTiter-Glo
Experimental: (§1) II. Inhibition of Cell Proliferation by PLK1 Inhibitors.
(§2) Exponentially growing cell lines of different tumor origins, cultured in appropriate media containing 10% fetal bovine serum at 37° C. in a 5% CO2 incubator were plated in 96 or 384-well plates. Twenty four hours post-plating, cells were treated with different concentrations of test compounds ranging from 20 μM to 0.04 nM. Several wells were left untreated as a control. Seventy two hours post-treatment, cell numbers were determined using different techniques; 100 μl per well of methylene blue (Sigma M9140) (0.5% in 50:50 Ethanol:water), or 10-100 μl per well of CellTiter-Glo (Promega #G7573), depending on well size. For methylene blue staining, stain was incubated at room temperature for 30 minutes before plates were rinsed and dye solubilized in 1% N-lauroyl sarcosine, sodium salt, (Sigma L5125, in PBS). Plates were read on a microplate reader, measuring the OD at 620 nm. For CellTiter-Glo, plates were incubated at room temperature for 15 minutes and the chemiluminescent signal was read on the Victor V or Envison 2100 reader.
(§3) Percent inhibition of cell growth was expressed as percent proliferation relative to 100% proliferation (control). […]

Calu1 = assay: Inhibition of cell proliferation, Calu1; conditions: Homo sapiens, Calu-1; lung; 72 h; methylene blue or CellTiter-Glo
Experimental: as §1, §2, §3

SKOV-3 = assay: Inhibition of cell proliferation, SKOV-3; conditions: Homo sapiens, SK-OV-3; Ovarian; 72 h; methylene blue or CellTiter-Glo
Experimental: as §1, §2
(§4) Percent inhibition of cell growth was expressed as percent proliferation relative to 100% proliferation (control). Concentration of test compound that inhibited 50% of cell growth (IC50) was determined by 4 parameter fit of data using XLfit, (value of no cell control was substracted from all samples for background). The data are shown in Table 1 and Table 2 below and represent a compilation of several different experiments each performed using the general parameters outlined above, although minor variations may have been employed in some instances, in Table 1 and Table 2, +=IC50>1 μM; ++=IC50 0.5-1 μM: +++=IC50<0.5 μM.

NCI-H358 = assay: Inhibition of cell proliferation, NCI-H358; conditions: Homo sapiens, lung, 72 h, methylene blue or CellTiter-Glo
Experimental: as §1, §2, §3

CRO-AP2 = assay: Inhibition of cell proliferation, CRO-AP2; conditions: Homo sapiens, peripheral blood, 72 h, methylene blue or CellTiter-Glo
Experimental: as §1, §2, §3

T-47D = assay: Inhibition of cell proliferation, T-47D; conditions: Homo sapiens, T47D; breast; 72 h; methylene blue or CellTiter-Glo
Experimental: as §1, §2, §3

BC-2 = assay: Inhibition of cell proliferation, BC-2; conditions: peripheral blood, 72 h, methylene blue or CellTiter-Glo
Experimental: as §1, §2, §3

Panc 02.03 = assay: Inhibition of cell proliferation, Panc 02.03; conditions: Homo sapiens, pancreas, 72 h, methylene blue or CellTiter-Glo
Experimental: as §1, §2, §3

BDCM = assay: Inhibition of cell proliferation, BDCM; conditions: peripheral blood; 72 h; methylene blue or CellTiter-Glo
Experimental: as §1, §2, §3

ASPC3 = assay: Inhibition of cell proliferation, ASPC3; conditions: Pancreatic; 72 h; methylene blue or CellTiter-Glo
Experimental: as §1, §2, §3

SKMEL3 = assay: Inhibition of cell proliferation, SKMEL3; conditions: Homo sapiens, SK-MEL3; skin; 72 h; methylene blue or CellTiter-Glo
Experimental: as §1, §2, §3

NCI-H727 = assay: Inhibition of cell proliferation, NCI-H727; conditions: Homo sapiens, lung, 72 h, methylene blue or CellTiter-Glo
Experimental: as §1, §2, §3

Hep3B = assay: Inhibition of cell proliferation, Hep3B; conditions: Homo sapiens, liver, 72 h, methylene blue or CellTiter-Glo
Experimental: as §1, §2, §3

A 704 = assay: Inhibition of cell proliferation, A 704; conditions: Homo sapiens, A704; kidney; 72 h; methylene blue or CellTiter-Glo
Experimental: as §1, §2, §3

SK-BR-3 = assay: Inhibition of cell proliferation, SK-BR-3; conditions: Homo sapiens, breast, 72 h, methylene blue or CellTiter-Glo
Experimental: as §1, §2, §3

HCC1954 = assay: Inhibition of cell proliferation, HCC1954; conditions: Homo sapiens, breast, 72 h, methylene blue or CellTiter-Glo
Experimental: as §1, §2, §3

COLO205 = assay: Inhibition of cell proliferation, COLO205; conditions: Homo sapiens, COLO 205; Colon; 72 h; methylene blue or CellTiter-Glo
Experimental: as §1, §2, §4

LoVo = assay: Inhibition of cell proliferation, LoVo; conditions: Homo sapiens, colon, 72 h, methylene blue or CellTiter-Glo
Experimental: as §1, §2, §3

Capan-2 = assay: Inhibition of cell proliferation, Capan-2; conditions: Homo sapiens, pancreas, 72 h, methylene blue or CellTiter-Glo
Experimental: as §1, §2, §3

HCT-15 = assay: Inhibition of cell proliferation, HCT-15; conditions: Homo sapiens, colon, 72 h, methylene blue or CellTiter-Glo
Experimental: as §1, §2, §3

HT29 = assay: Inhibition of cell proliferation, HT29; conditions: Homo sapiens, HT-29; Colon; 72 h; methylene blue or CellTiter-Glo
Experimental: as §1, §2, §4

A549-L = assay: Inhibition of cell proliferation, A549-L; conditions: lung; 72 h; methylene blue or CellTiter-Glo
Experimental: as §1, §2, §4

MV522 = assay: Inhibition of cell proliferation, MV522; conditions: Lung, 72 h, methylene blue or CellTiter-Glo
Experimental: as §1, §2, §3

H1299 = assay: Inhibition of cell proliferation, H1299; conditions: Homo sapiens, NCI-H1299; Lung; 72 h; methylene blue or CellTiter-Glo
Experimental: as §1, §2, §3

U87-MG = assay: Inhibition of cell proliferation, U87-MG; conditions: Homo sapiens, U-87 MG; brain; 72 h; methylene blue or CellTiter-Glo
Experimental: as §1, §2, §3

NCI-N87 = assay: Inhibition of cell proliferation, NCI-N87; conditions: Homo sapiens, stomach, 72 h, methylene blue or CellTiter-Glo
Experimental: as §1, §2, §3

IC50 (Calu1): < 500 nM | IC50 (SKOV-3): < 500 nM | IC50 (NCI-H358): < 500 nM | IC50 (T-47D): > 1000 nM | IC50 (Panc 02.03): < 500 nM | IC50 (ASPC3): < 500 nM | IC50 (SKMEL3): < 500 nM | IC50 (NCI-H727): > 1000 nM | IC50 (Hep3B): < 500 nM | IC50 (SK-BR-3): < 500 nM | IC50 (HCC1954): < 500 nM | IC50 (COLO205): < 500 nM | IC50 (LoVo): < 500 nM | IC50 (HCT-15): < 500 nM | IC50 (HT29): < 500 nM | IC50 (A549-L): < 500 nM | IC50 (H1299): < 500 nM | IC50 (U87-MG): < 500 nM
Compound: C[C@@H](Oc1cc(-n2cnc3cc(-c4cnn(C)c4)ccc32)sc1C(N)=O)c1cccc(OC2CCN(C)CC2)c1Cl [Example 48]
IC50 (CA46): < 500 nM | IC50 (CRO-AP2): < 500 nM | IC50 (BC-2): > 1000 nM | IC50 (BDCM): < 500 nM | IC50 (A 704): < 500 nM | IC50 (Capan-2): > 1000 nM | IC50 (MV522): < 500 nM | IC50 (NCI-N87): < 500 nM

— patent US20100075960A1 (priority 2006, published 2010)
